Test: cn = amount concentration of the nth substance listed, in mol/dm3
Settings: 101 kPa, Liquid, Alternating current cell with electrodes

CCCCn1cc[n+](C)c1.[I-] [1-butyl-3-methylimidazolium iodide] + O
Settings | molar conductivity [S·m2/mol]
298.15 K, c1 = 0.0009058 | 0.0138
298.15 K, c1 = 0.001366 | 0.0137
298.15 K, c1 = 0.002017 | 0.0136
298.15 K, c1 = 0.002809 | 0.0135
298.15 K, c1 = 0.003715 | 0.0134
298.15 K, c1 = 0.00495 | 0.0133
298.15 K, c1 = 0.006082 | 0.0132
298.15 K, c1 = 0.007529 | 0.0131
298.15 K, c1 = 0.009093 | 0.0129
298.15 K, c1 = 0.01105 | 0.0127
298.15 K, c1 = 0.01306 | 0.0126
298.15 K, c1 = 0.01489 | 0.0125
298.15 K, c1 = 0.01706 | 0.0123
298.15 K, c1 = 0.01978 | 0.0122
298.15 K, c1 = 0.02281 | 0.012
308.15 K, c1 = 0.0004602 | 0.0139
308.15 K, c1 = 0.0008351 | 0.0138
308.15 K, c1 = 0.001278 | 0.0137
308.15 K, c1 = 0.001726 | 0.0135
308.15 K, c1 = 0.002088 | 0.0135
308.15 K, c1 = 0.00254 | 0.0133
308.15 K, c1 = 0.003341 | 0.0132
308.15 K, c1 = 0.004184 | 0.0131
308.15 K, c1 = 0.005066 | 0.0129
308.15 K, c1 = 0.006502 | 0.0127
308.15 K, c1 = 0.007827 | 0.0126
308.15 K, c1 = 0.009685 | 0.0124
308.15 K, c1 = 0.01153 | 0.0122
318.15 K, c1 = 0.0002077 | 0.0144
318.15 K, c1 = 0.0005721 | 0.0143
318.15 K, c1 = 0.000962 | 0.0142
318.15 K, c1 = 0.001339 | 0.0141
318.15 K, c1 = 0.002111 | 0.0139
318.15 K, c1 = 0.002755 | 0.0138
318.15 K, c1 = 0.003581 | 0.0136
318.15 K, c1 = 0.004395 | 0.0134
318.15 K, c1 = 0.005399 | 0.0132
318.15 K, c1 = 0.006692 | 0.013
318.15 K, c1 = 0.007942 | 0.0128
318.15 K, c1 = 0.009561 | 0.0126
318.15 K, c1 = 0.01162 | 0.0124
328.15 K, c1 = 0.0004059 | 0.0146
328.15 K, c1 = 0.00074 | 0.0145
328.15 K, c1 = 0.001116 | 0.0143
328.15 K, c1 = 0.001865 | 0.0141
328.15 K, c1 = 0.002626 | 0.0139
328.15 K, c1 = 0.003374 | 0.0138
328.15 K, c1 = 0.004072 | 0.0137
328.15 K, c1 = 0.005214 | 0.0134
328.15 K, c1 = 0.006444 | 0.0132
328.15 K, c1 = 0.007599 | 0.013
328.15 K, c1 = 0.009252 | 0.0128
328.15 K, c1 = 0.01045 | 0.0126
328.15 K, c1 = 0.01188 | 0.0125

CCCCCn1cc[n+](C)c1.[Br-] [1-pentyl-3-methylimidazolium bromide] + O
Settings | molar conductivity [S·m2/mol]
298.15 K, c1 = 0.000384 | 0.0111
298.15 K, c1 = 0.0008844 | 0.0111
298.15 K, c1 = 0.001373 | 0.011
298.15 K, c1 = 0.001897 | 0.011
298.15 K, c1 = 0.002397 | 0.0109
298.15 K, c1 = 0.003002 | 0.0108
298.15 K, c1 = 0.004323 | 0.0107
298.15 K, c1 = 0.005743 | 0.0106
298.15 K, c1 = 0.00718 | 0.0105
298.15 K, c1 = 0.008646 | 0.0104
298.15 K, c1 = 0.01011 | 0.0102
298.15 K, c1 = 0.01145 | 0.0102
298.15 K, c1 = 0.01293 | 0.01
308.15 K, c1 = 0.0006353 | 0.0115
308.15 K, c1 = 0.001306 | 0.0114
308.15 K, c1 = 0.002028 | 0.0113
308.15 K, c1 = 0.002681 | 0.0113
308.15 K, c1 = 0.003351 | 0.0112
308.15 K, c1 = 0.003975 | 0.0111
308.15 K, c1 = 0.004605 | 0.011
308.15 K, c1 = 0.00598 | 0.0109
308.15 K, c1 = 0.007554 | 0.0107
308.15 K, c1 = 0.008895 | 0.0106
308.15 K, c1 = 0.01033 | 0.0105
308.15 K, c1 = 0.01176 | 0.0103
308.15 K, c1 = 0.01422 | 0.0101
318.15 K, c1 = 0.0004898 | 0.0136
318.15 K, c1 = 0.001056 | 0.0135
318.15 K, c1 = 0.002177 | 0.0134
318.15 K, c1 = 0.003249 | 0.0131
318.15 K, c1 = 0.004768 | 0.0128
318.15 K, c1 = 0.006798 | 0.0124
318.15 K, c1 = 0.009143 | 0.012
318.15 K, c1 = 0.01259 | 0.0115
318.15 K, c1 = 0.01687 | 0.0109
318.15 K, c1 = 0.02234 | 0.0103
328.15 K, c1 = 0.0004268 | 0.0146
328.15 K, c1 = 0.0008311 | 0.0141
328.15 K, c1 = 0.001314 | 0.0139
328.15 K, c1 = 0.002252 | 0.0137
328.15 K, c1 = 0.003274 | 0.0135
328.15 K, c1 = 0.004773 | 0.0133
328.15 K, c1 = 0.006329 | 0.0131
328.15 K, c1 = 0.008289 | 0.0128
328.15 K, c1 = 0.01078 | 0.0125
328.15 K, c1 = 0.01389 | 0.0122
328.15 K, c1 = 0.01791 | 0.0118
328.15 K, c1 = 0.02233 | 0.0115
328.15 K, c1 = 0.02611 | 0.0111

CCCCCCn1cc[n+](C)c1.[Br-] [3-hexyl-1-methyl-1H-imidazolium bromide] + O
Settings | molar conductivity [S·m2/mol]
298.15 K, c1 = 0.0004233 | 0.0104
298.15 K, c1 = 0.0008352 | 0.0103
298.15 K, c1 = 0.001327 | 0.0102
298.15 K, c1 = 0.001785 | 0.0101
298.15 K, c1 = 0.002231 | 0.0101
298.15 K, c1 = 0.003203 | 0.00996
298.15 K, c1 = 0.004124 | 0.00983
298.15 K, c1 = 0.005143 | 0.00974
298.15 K, c1 = 0.006841 | 0.00955
298.15 K, c1 = 0.008495 | 0.00941
298.15 K, c1 = 0.01022 | 0.00923
298.15 K, c1 = 0.01211 | 0.00905
298.15 K, c1 = 0.01464 | 0.0088
308.15 K, c1 = 0.0004492 | 0.0108
308.15 K, c1 = 0.001027 | 0.0106
308.15 K, c1 = 0.001581 | 0.0105
308.15 K, c1 = 0.002065 | 0.0104
308.15 K, c1 = 0.002724 | 0.0104
308.15 K, c1 = 0.003914 | 0.0102
308.15 K, c1 = 0.005116 | 0.00999
308.15 K, c1 = 0.006411 | 0.00987
308.15 K, c1 = 0.008535 | 0.00965
308.15 K, c1 = 0.01052 | 0.00946
308.15 K, c1 = 0.0126 | 0.00927
308.15 K, c1 = 0.01458 | 0.00912
318.15 K, c1 = 0.0004492 | 0.011
318.15 K, c1 = 0.001027 | 0.0109
318.15 K, c1 = 0.001581 | 0.0108
318.15 K, c1 = 0.002065 | 0.0107
318.15 K, c1 = 0.002724 | 0.0106
318.15 K, c1 = 0.003914 | 0.0104
318.15 K, c1 = 0.005116 | 0.0103
318.15 K, c1 = 0.006411 | 0.0102
318.15 K, c1 = 0.008535 | 0.00993
318.15 K, c1 = 0.01052 | 0.00971
318.15 K, c1 = 0.0126 | 0.00953
318.15 K, c1 = 0.01458 | 0.00935
328.15 K, c1 = 0.0005148 | 0.0114
328.15 K, c1 = 0.001041 | 0.0113
328.15 K, c1 = 0.001608 | 0.0111
328.15 K, c1 = 0.002215 | 0.011
328.15 K, c1 = 0.002695 | 0.0109
328.15 K, c1 = 0.003725 | 0.0107
328.15 K, c1 = 0.004772 | 0.0105
328.15 K, c1 = 0.005836 | 0.0103
328.15 K, c1 = 0.007462 | 0.0102
328.15 K, c1 = 0.00911 | 0.00996
328.15 K, c1 = 0.0107 | 0.00985
328.15 K, c1 = 0.01243 | 0.00963
328.15 K, c1 = 0.0147 | 0.00945
